Experiments:
rats = test: FeCl3 induced carotid artery thrombosis in rats; type: in vivo; conditions: for time to occlude the carotid artery (TTO): compound 1 at the same dose as compound 6, aspirin at a very high dose
Experimental: Male SD rats were anesthetized by urethane (1.25 g/kg, i.p.). The carotid artery was carefully dissected and a pulsed Doppler Probe (DBF-120A-CPx, CBI-8000, Crystal Biotech, USA) was placed around it to record the blood flow velocity and patency of the blood vessels. The carotid artery thrombosis was induced by FeCl3 as follows: a square (1×1 mm) of Whatman Chromatography paper was immersed in 20% FeCl3 solution for 5 min and placed on the carotid artery as described earlier (Kurz K D, Main B W, Sandusky G E. Rat model of arterial thrombosis induced by ferric chloride. Thromb Res 1990; 60(4):269-80). Thrombosis was monitored as the reduction in carotid artery blood flow. The time at which the blood-flow velocity was decreased to zero was recorded as the total of occlusion (TTO) of the carotid artery. […] (Ferric Chloride induced thrombosis (FIG. 7))

hyperlipidemic hamsters = test: FeCl3 induced thrombosis in hyperlipidemic hamsters; type: in vivo; conditions: for time to occlusion (TTO): HCHF fed hamsters
Experimental: HCHF treated hamsters were anesthetized by urethane (1.25 g/kg, i.p.). The carotid artery was carefully dissected and a pulsed Doppler Probe (DBF-120A-CPx, CBI-8000, Crystal Biotech. USA) was placed around it to record the blood flow velocity and potency of the blood vessels. The carotid artery thrombosis was induced by FeCl3 as follows: a square (1×1 mm) of Whatman Chromatography paper was immersed in 30% FeCl3 solution for 5 min and placed on the carotid artery as described earlier (Kurz K D, Main B W, Sandusky G E. Rat model of arterial thrombosis induced by ferric chloride. Thromb Res 1990; 60(4):269-80). Thrombosis was monitored as the reduction in carotid artery blood flow. The time at which the blood-flow velocity was decreased to zero was recorded as the total of occlusion of the vessel.

mouse platelets = test: Platelet adhesion over collagen matrix (mice, ex vivo); type: in vivo; conditions: oral route, compound 6 10, 30, 100 μM/kg, aspirin 100 μM/kg
Text: FIG. 4b: Adhesion of mouse platelets on collagen matrix as observed under fluorescence microscope 40× (ex vivo method). Different pictures show the different treatment performed. Washed murine platelets (2×10^6/ml) were obtained from animals pretreated with the compound (compound 6) (different doses) and seeded on BSA or Collagen (fibrillar) coated cover slips (A, B). Platelets from untreated animals were allowed to adhere on uncoated and BSA coated cover slip respectively to delineate the possibility of non specific binding. C, D. control platelets were adhered on collagen coated cover slip (control). E. F&G. Platelets obtained from animals pre-treated with compound 6 (10 μM/kg, 30 μM/kg & 100 μM/kg) respectively were adhered on collagen coated cover slip. H, I. Platelets from Aspirin (100 μM/kg) & Clopidogrel treated (100 μM/kg) animals resp. (standard Drugs) and adhered on collagen coated cover slip (n=5, 5 animals/group/experiment).

[1] = tested on: human platelet rich plasma (Ristocetin, GP 1b specific agonist); test: Ristocetin induced platelet aggregation, human platelet rich plasma (in vitro); type: cell-based; conditions: 1.5 mg/ml Ristocetin
Experimental: (§1) The reaction was allowed to proceed for at least 5 min, and the extent of aggregation was expressed in light-transmission units (Ivandic B T, Schlick P, Starltz P, Kurz K, Katas H A, Giannitsis E. Determination of clopidogrel resistance by whole blood platelet aggregometry and inhibitors of the P2Y12 receptor. Clinical Chemistry 2006: 52:383-88).
(§2) The percentage of aggregation was calculated by using following formula: Percent Aggregation=A/B×100 Where, A is the number of division traversed by the label on chart in the presence of Inducer & B is the total number of divisions (80). Platelet Aggregation Studies (FIG. 3) a) Platelet Aggregation (Human, In Vitro) (FIG. 3a (i) (ii) (iii))

[2] = tested on: human platelet rich plasma (Convulxin, GP VI agonist); test: Convulxin induced platelet aggregation, human platelet rich plasma (in vitro); type: cell-based; conditions: at 500 μM
Experimental: as §1, §2

human platelets = test: Intracellular calcium mobilization in Fura-2 loaded platelets stimulated by collagen; type: cell-based; conditions: Fura-2 loaded human platelets, collagen 5 μg/ml
Experimental: Ca^+2 concentration ([Ca^+2]i) were monitored by Fura-2AM fluorescence in the platelets (Fowler C J. Tiger G Calibration of Fura-2 signals introduces errors into measurement of thrombin-stimulated calcium mobilization in human platelets. Clinica Chimica Acta. 1997; 265:247-261). Human PRP was incubated with 5 μM Fura-2 AM (Sigma) for 60 minutes at 37° C. After 2 washes with the wash buffer, the platelets were resuspended at 2×10^6 cells/mL with the Tyrode's-HEPES buffer. After incubating with various concentrations of compound for 5 minutes, the platelets were stimulated with collagen (5 μg/mL)(the concentration of collagen was varied in accordance with cell number). The Fura-2 fluorescence was measured for 5 minutes at an excitation wavelength of 340/380 nm and emission wavelength of 500 nm (Yoshida S., Sudo T., Niimi M., Tao L., Sun B., Kambayashi J., Watanabe H., Luo E., and Matsuoka H. Inhibition of collagen-induced platelet aggregation by anopheline antiplatelet protein, a saliva protein from a malaria vector mosquito. Blood 2007; 111: 2007-201) using a fluorescence spectrophotometer (VARIAN, Cary Eclipse).

Compound | time to occlude the carotid artery (TTO) (rats; rats) | time to occlusion (TTO) (hyperlipidemic hamsters) | platelet adhesion (ex vivo) over collagen surface (mouse platelets) | Ferric chloride induced thrombosis in rats (rats; Table 2 summary) | time to occlusion, dose dependence (rats; rats, 10, 30 & 100 μM/kg) | inhibition of Ristocetin induced platelet aggregation [1] | Ferric chloride induced thrombosis in hyperlipidemic hamsters (hyperlipidemic hamsters; Table 2 summary) | inhibition of convulxin induced platelet aggregation [2] | calcium mobilization ([Ca2+]i) during collagen stimulation (human platelets)
Cc1ccc(CN2C(=O)CC[C@H]2C(=O)N2CCCC(CNC(=O)OC(C)(C)C)C2)cc1 (stereo partly shown) [Compound 1, 1-(4-methylphenylmethyl)-5-oxo-{N-[(3-t-butoxycarbonyl-aminomethyl)]-piperidin-1-yl}-pyrrolidine-2-carboxamides] | failed to exhibit any protection | remained ineffective | – | – | – | – | – | – | –
Cc1ccc(CN2C(=O)CC[C@H]2C(=O)N2CCC[C@@H](CNC(=O)OC(C)(C)C)C2)cc1 [Compound 6] | significantly prolonged | significantly increased | dose dependent inhibition | Protective | dose dependently exhibited prolongation in time to occlusion | not to exhibit any effect | Protective | does not significantly inhibit | concentration dependent inhibition
Cc1ccc(CN2C(=O)CC[C@H]2C(=O)N2CCC[C@H](CNC(=O)OC(C)(C)C)C2)cc1 [Compound 7, (2S)-1-(4-methylphenylmethyl)-5-oxo-(3R)-{N-[(3-t-butoxycarbonyl-aminomethyl)]-piperidin-1-yl}-pyrrolidine-2-carboxamide] | – | remained ineffective | – | – | – | not to exhibit any effect | – | – | –
